Data: the supplement of paper PMC10933113
± gives the uncertainty stated by the source.

What was measured:
THP-1 = assay: efficacy of IL-8 induction relative to DMSO (% activity); higher = stronger induction; details: exposure time: 18 h
[1] = system: KeratinoSens (HaCaT ARE-luciferase) cells; assay: AC50 of Nrf2/ARE luciferase induction; higher = less potent; details: exposure time: 24 h
[2] = system: KeratinoSens (HaCaT ARE-luciferase) cells; assay: cytotoxicity AC50 (CellTiter-Fluor viability); higher = less cytotoxic; details: exposure time: 24 h
[3] = system: KeratinoSens (HaCaT ARE-luciferase) cells; assay: efficacy of ARE luciferase induction relative to DMSO (% activity over DMSO); higher = stronger induction; details: exposure time: 24 h
[4] = system: cysteine peptide Ac-RFAACAA-COOH; assay: efficacy of cysteine peptide change (negative = depletion) (% activity); higher = less depletion; details: incubation time: 24 h
[5] = system: lysine peptide Ac-RFAAKAA-COOH; assay: efficacy of lysine peptide change (negative = depletion) (% activity); higher = less depletion; details: incubation time: 24 h
[6] = system: cysteine peptide Ac-RFAACAA-COOH; assay: AC50 of cysteine peptide concentration-response (direction given by sign of efficacy); higher = less potent; details: incubation time: 24 h

## CCN(CC)CCNc1ccc(CNC=O)c2sc3ccc(OC)cc3c(=O)c12
THP-1
  efficacy of IL-8 induction: 3.79 ± 6.6
[1]
  AC50 of Nrf2/ARE luciferase induction: 63.9 µM
[2]
  cytotoxicity AC50: 59.5 ± 26 µM
[3]
  efficacy of ARE luciferase induction: 189 ± 110

## Nc1ccccc1N [1,2-Phenylenediamine*]
THP-1
  efficacy of IL-8 induction: 4.93 ± 5.2
[1]
  AC50 of Nrf2/ARE luciferase induction: 34.4 µM
[4]
  efficacy of cysteine peptide change: -90.9 ± 5
[5]
  efficacy of lysine peptide change: 7.79 ± 12
[6]
  AC50: 1.06 ± 0.49 µM
[3]
  efficacy of ARE luciferase induction: 88 ± 31

## O=C(CCl)CCl [1,3-Dichloropropanone]
THP-1
  efficacy of IL-8 induction: 22.5 ± 6.2
[1]
  AC50 of Nrf2/ARE luciferase induction: 40.9 µM
[4]
  efficacy of cysteine peptide change: -107 ± 9.9
[5]
  efficacy of lysine peptide change: -12.5 ± 16
[6]
  AC50: 35.6 ± 4.1 µM
[3]
  efficacy of ARE luciferase induction: 84.2 ± 64

## Nc1ccc(N)cc1 [1,4-Benzenediamine]
THP-1
  efficacy of IL-8 induction: 19.1 ± 5.7
[1]
  AC50 of Nrf2/ARE luciferase induction: 39.8 µM
[4]
  efficacy of cysteine peptide change: -107 ± 20
[5]
  efficacy of lysine peptide change: 61 ± 17
[6]
  AC50: 9.58 ± 2.8 µM
[3]
  efficacy of ARE luciferase induction: 54.5 ± 20

## C=CC(=O)OCCCCOC(=O)C=C [1,4-Butanediol diacrylate]
THP-1
  efficacy of IL-8 induction: 16.2 ± 1.7
[1]
  AC50 of Nrf2/ARE luciferase induction: 35.5 µM
[2]
  cytotoxicity AC50: 43 ± 2.8 µM
[3]
  efficacy of ARE luciferase induction: 336 ± 19

## C=CC(=O)OCCCCCCOC(=O)C=C [1,6-Hexanediol diacrylate]
THP-1
  efficacy of IL-8 induction: 9.97 ± 9.4
[1]
  AC50 of Nrf2/ARE luciferase induction: 35.5 µM
[4]
  efficacy of cysteine peptide change: -106 ± 3.3
[5]
  efficacy of lysine peptide change: 9.01 ± 17
[2]
  cytotoxicity AC50: 43 ± 2.8 µM
[6]
  AC50: 50.1 µM
[3]
  efficacy of ARE luciferase induction: 343 ± 90

## Cc1ccc2c(c1N)C(=O)c1ccccc1C2=O [1-Amino-2-methylanthraquinone]
THP-1
  efficacy of IL-8 induction: 0
[1]
  AC50 of Nrf2/ARE luciferase induction: 37.8 µM
[4]
  efficacy of cysteine peptide change: -101 ± 4.8
[5]
  efficacy of lysine peptide change: -8.55 ± 7.6
[6]
  AC50: 24.3 ± 3.4 µM
[3]
  efficacy of ARE luciferase induction: 55.7 ± 35

## C/C=C/C=C/C=O [2,4-Hexadienal]
THP-1
  efficacy of IL-8 induction: 12.8 ± 12
[1]
  AC50 of Nrf2/ARE luciferase induction: 73.7 µM
[4]
  efficacy of cysteine peptide change: -129 ± 9.8
[5]
  efficacy of lysine peptide change: -110 ± 23
[6]
  AC50: 17 ± 5 µM
[3]
  efficacy of ARE luciferase induction: 427 ± 46

## CC(C)(C)c1cc(O)c(C(C)(C)C)cc1O [2,5-Di-tert-butylbenzene-1,4-diol]
THP-1
  efficacy of IL-8 induction: 40.9 ± 4.8
[1]
  AC50 of Nrf2/ARE luciferase induction: 42.1 µM
[4]
  efficacy of cysteine peptide change: -80.8 ± 14
[5]
  efficacy of lysine peptide change: -4 ± 6.9
[2]
  cytotoxicity AC50: 34.2 ± 2.2 µM
[6]
  AC50: 85.9 ± 5.6 µM
[3]
  efficacy of ARE luciferase induction: 175 ± 86

## O=C(Nc1ccccc1)c1cc([N+](=O)[O-])ccc1Cl [2-Chloro-5-nitro-N-phenylbenzamide]
THP-1
  efficacy of IL-8 induction: 10.4 ± 3
[1]
  AC50 of Nrf2/ARE luciferase induction: 40 µM
[4]
  efficacy of cysteine peptide change: -15.7 ± 6.5
[5]
  efficacy of lysine peptide change: 58.4 ± 17
[3]
  efficacy of ARE luciferase induction: 92.4 ± 39

## O=C(CCl)c1ccccc1 [2-Chloroacetophenone]
THP-1
  efficacy of IL-8 induction: 29.4 ± 7.2
[1]
  AC50 of Nrf2/ARE luciferase induction: 35.5 µM
[4]
  efficacy of cysteine peptide change: -94.1 ± 28
[5]
  efficacy of lysine peptide change: 9.03 ± 16
[2]
  cytotoxicity AC50: 57 ± 12 µM
[6]
  AC50: 49.4 ± 34 µM
[3]
  efficacy of ARE luciferase induction: 327 ± 92

## Cc1ccc2c(c1[N+](=O)[O-])C(=O)c1ccccc1C2=O [2-Methyl-1-nitroanthraquinone]
THP-1
  efficacy of IL-8 induction: 12 ± 10
[1]
  AC50 of Nrf2/ARE luciferase induction: 34.8 µM
[4]
  efficacy of cysteine peptide change: -26 ± 7.3
[5]
  efficacy of lysine peptide change: 0.29 ± 19
[3]
  efficacy of ARE luciferase induction: 81.9 ± 8.7

## O=c1ssc(Cl)c1Cl [4,5-Dichloro-3H-1,2-dithiol-3-one]
THP-1
  efficacy of IL-8 induction: 24.5 ± 3.5
[1]
  AC50 of Nrf2/ARE luciferase induction: 21.3 µM
[4]
  efficacy of cysteine peptide change: -102 ± 9.4
[5]
  efficacy of lysine peptide change: -36.4 ± 2.7
[2]
  cytotoxicity AC50: 37.8 ± 11 µM
[6]
  AC50: 1.4 ± 0.39 µM
[3]
  efficacy of ARE luciferase induction: 92.3 ± 9.5

## Nc1ccc(Cl)cc1N [4-Chloro-1,2-diaminobenzene*]
THP-1
  efficacy of IL-8 induction: 10.3 ± 2.3
[1]
  AC50 of Nrf2/ARE luciferase induction: 13.7 µM
[4]
  efficacy of cysteine peptide change: -99.1 ± 6
[5]
  efficacy of lysine peptide change: -6.76 ± 18
[6]
  AC50: 5.4 ± 2.3 µM
[3]
  efficacy of ARE luciferase induction: 70 ± 21

## C=CC(=O)OCCOC(=O)CCC(=O)O [4-[2-(Acryloyloxy)ethoxy]-4-oxobutanoic acid]
THP-1
  efficacy of IL-8 induction: 0
[1]
  AC50 of Nrf2/ARE luciferase induction: 61.3 µM
[4]
  efficacy of cysteine peptide change: -111 ± 7.3
[5]
  efficacy of lysine peptide change: -2.94 ± 13
[6]
  AC50: 34.1 ± 14 µM
[3]
  efficacy of ARE luciferase induction: 87.4 ± 29

## C[C@]12C=CC3=C4CCC(=O)C=C4CC[C@H]3[C@@H]1CC[C@@H]2O [17beta-Trenbolone]
THP-1
  efficacy of IL-8 induction: 32.2 ± 36
[1]
  AC50 of Nrf2/ARE luciferase induction: 39.1 µM
[2]
  cytotoxicity AC50: 50.9 ± 20 µM
[3]
  efficacy of ARE luciferase induction: 189 ± 53

## CCOCN(C(=O)CCl)c1c(C)cccc1CC [Acetochlor]
THP-1
  efficacy of IL-8 induction: 8.32 ± 8.4
[1]
  AC50 of Nrf2/ARE luciferase induction: 53.6 µM
[4]
  efficacy of cysteine peptide change: 11.4 ± 11
[5]
  efficacy of lysine peptide change: 79.9 ± 12
[2]
  cytotoxicity AC50: 55.2 ± 14 µM
[3]
  efficacy of ARE luciferase induction: 98.8 ± 68

## Cc1c(C)n(CCN(C)C)c2ccc(C(=O)OCCN(C)C)cc12 [Amindocate]
THP-1
  efficacy of IL-8 induction: -1.77 ± 3.1
[1]
  AC50 of Nrf2/ARE luciferase induction: 29.8 µM
[4]
  efficacy of cysteine peptide change: 9.57 ± 11
[5]
  efficacy of lysine peptide change: 58.5 ± 9.6
[2]
  cytotoxicity AC50: 28.3 ± 9.3 µM
[3]
  efficacy of ARE luciferase induction: 96.2 ± 38

## COc1ccc(-c2cc(=S)ss2)cc1 [Anethole trithione]
THP-1
  efficacy of IL-8 induction: 38.6 ± 10
[1]
  AC50 of Nrf2/ARE luciferase induction: 22 µM
[4]
  efficacy of cysteine peptide change: -84.1 ± 12
[5]
  efficacy of lysine peptide change: -0.11 ± 7.8
[2]
  cytotoxicity AC50: 34.2 ± 2.2 µM
[3]
  efficacy of ARE luciferase induction: 96.9 ± 78

## O=C(Nc1cccc(Cl)c1)OCC#CCCl [Barban]
THP-1
  efficacy of IL-8 induction: 34.1 ± 7.5
[1]
  AC50 of Nrf2/ARE luciferase induction: 35.5 µM
[4]
  efficacy of cysteine peptide change: -52.5 ± 14
[5]
  efficacy of lysine peptide change: 33.7 ± 4.6
[2]
  cytotoxicity AC50: 55.2 ± 14 µM
[3]
  efficacy of ARE luciferase induction: 101 ± 30

## c1ccc2cc3c(ccc4ccccc43)cc2c1 [Benz(a)anthracene]
THP-1
  efficacy of IL-8 induction: 32.1 ± 4.5
[1]
  AC50 of Nrf2/ARE luciferase induction: 40 µM
[4]
  efficacy of cysteine peptide change: -97.8 ± 2.9
[5]
  efficacy of lysine peptide change: -36.8 ± 14
[6]
  AC50: 12.2 ± 1.7 µM
[3]
  efficacy of ARE luciferase induction: 126 ± 33

## O=C(OCc1ccccc1)c1ccc(O)cc1 [Benzylparaben]
THP-1
  efficacy of IL-8 induction: 0
[1]
  AC50 of Nrf2/ARE luciferase induction: 12.1 µM
[4]
  efficacy of cysteine peptide change: 0
[5]
  efficacy of lysine peptide change: 90.8 ± 51
[3]
  efficacy of ARE luciferase induction: 52.2 ± 9.2

## CCCCOCN(C(=O)CCl)c1c(CC)cccc1CC [Butachlor]
THP-1
  efficacy of IL-8 induction: 22.1 ± 11
[1]
  AC50 of Nrf2/ARE luciferase induction: 70.8 µM
[4]
  efficacy of cysteine peptide change: -24.1 ± 21
[5]
  efficacy of lysine peptide change: 2.3 ± 11
[2]
  cytotoxicity AC50: 41.4 ± 2.8 µM
[3]
  efficacy of ARE luciferase induction: 324 ± 31

## Oc1ccc2ccccc2c1N=Nc1ccccc1 [C.I. Solvent Yellow 14]
THP-1
  efficacy of IL-8 induction: 5.32 ± 9.2
[1]
  AC50 of Nrf2/ARE luciferase induction: 28.2 µM
[4]
  efficacy of cysteine peptide change: -94.7 ± 4
[5]
  efficacy of lysine peptide change: -31.1 ± 6.5
[6]
  AC50: 10.8 ± 3.5 µM
[3]
  efficacy of ARE luciferase induction: 49.8 ± 19

## [Cl][Cd][Cl] [Cadmium II chloride]
THP-1
  efficacy of IL-8 induction: 19.4 ± 2.2
[1]
  AC50 of Nrf2/ARE luciferase induction: 18.9 µM
[4]
  efficacy of cysteine peptide change: 11.2 ± 30
[5]
  efficacy of lysine peptide change: 4.14 ± 11
[2]
  cytotoxicity AC50: 37.3 ± 6.7 µM
[3]
  efficacy of ARE luciferase induction: 146 ± 94

## Cl/C=C\C[N+]12CN3CN(CN(C3)C1)C2 [Chloroallyl methenamine chloride]
THP-1
  efficacy of IL-8 induction: 6.91 ± 6.8
[1]
  AC50 of Nrf2/ARE luciferase induction: 73.7 µM
[4]
  efficacy of cysteine peptide change: -102 ± 6.1
[5]
  efficacy of lysine peptide change: -14.5 ± 14
[6]
  AC50: 19.6 ± 4.8 µM
[3]
  efficacy of ARE luciferase induction: 1290 ± 60

## O=c1cc(-c2ccccc2)oc2cc(O)cc(O)c12 [Chrysin]
THP-1
  efficacy of IL-8 induction: 13.2 ± 3.6
[1]
  AC50 of Nrf2/ARE luciferase induction: 53.6 µM
[4]
  efficacy of cysteine peptide change: -10.9 ± 9.8
[5]
  efficacy of lysine peptide change: 22 ± 20
[3]
  efficacy of ARE luciferase induction: 210 ± 48

## Cc1cc(C2CC2)nc(Nc2ccccc2)n1 [Cyprodinil]
THP-1
  efficacy of IL-8 induction: 2.31 ± 4
[1]
  AC50 of Nrf2/ARE luciferase induction: 35.1 µM
[4]
  efficacy of cysteine peptide change: 6 ± 10
[5]
  efficacy of lysine peptide change: 57 ± 8.8
[3]
  efficacy of ARE luciferase induction: 41.8 ± 10

## C[C@]12CC[C@H](O)C[C@H]1CC[C@@H]1[C@@H]2C[C@@H](O)[C@]2(C)[C@@H](C3=CC(=O)OC3)CC[C@]12O [Digoxigenin]
THP-1
  efficacy of IL-8 induction: 21.1 ± 4.1
[1]
  AC50 of Nrf2/ARE luciferase induction: 5.7 µM
[4]
  efficacy of cysteine peptide change: 2.17 ± 3.8
[5]
  efficacy of lysine peptide change: 68.2 ± 22
[2]
  cytotoxicity AC50: 4.65 ± 1.6 µM
[3]
  efficacy of ARE luciferase induction: 600 ± 260
